According to patent US20250171516A1, “PEPTIDE ACIDS AS A GLP1R AGONIST AND ANTIBODY-DRUG CONJUGATES THEREOF” (Regeneron Pharmaceuticals, Inc., priority 2023, published 2025):
Non-standard residues stand in square brackets, D forms with d. Groups on a side chain read outwards from the residue. No end group written: not given here. M3190 payload = not defined here; AA10 = not defined here; AA1 = not defined here; AA2 = not defined here; AA6 = not defined here; AA9 = not defined here

Assays:
GLP1R humanized mouse = assay: In vivo conversion of c-M3190 ATL to c-M6009 after s.c. dosing; conditions: 7 days
Protocol: From a tryptic digestion of the parent M3190-ATL, peptide c-M3190 is a peptide and their structures/sequences were determined by high resolution mass spectroscopy as shown below.
11.4 Syntheses and Characterization of Peptide Compounds Identified from M3190 Metabolite Study

GLP-1R [1] = biological target: T1, GLP-1R (Homo sapiens, UniProt P43220); assay: b-arrestin 2 recruitment enzyme fragment complementation assay in HEK293/b-arrestin2/hGLP1R cells; format: cell-based; set-up: The full-length human GLP1R (NP_002053.3) with a C-terminus fusion to a small b-gal fragment called enzyme donor or ProLink (PK); host or cells: HEK293/b-arrestin2-EA (HEK293/Barrestin clone 2C6/hGLP1R-Prolink1 high sorted, ACL21687)
T1 sequence (P43220 24-463): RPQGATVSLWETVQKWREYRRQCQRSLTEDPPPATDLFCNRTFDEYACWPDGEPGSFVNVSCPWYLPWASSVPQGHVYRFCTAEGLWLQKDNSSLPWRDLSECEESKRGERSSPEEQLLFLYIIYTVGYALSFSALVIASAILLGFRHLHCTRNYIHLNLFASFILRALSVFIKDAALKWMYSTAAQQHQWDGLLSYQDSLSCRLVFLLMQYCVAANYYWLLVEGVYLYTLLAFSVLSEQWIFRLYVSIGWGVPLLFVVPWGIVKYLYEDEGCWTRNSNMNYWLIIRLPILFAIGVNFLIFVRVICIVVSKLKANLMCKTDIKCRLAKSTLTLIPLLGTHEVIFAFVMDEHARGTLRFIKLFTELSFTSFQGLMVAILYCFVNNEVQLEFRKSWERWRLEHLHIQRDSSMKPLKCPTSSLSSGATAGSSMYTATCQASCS
Excerpt: To test the recruitment of b-arrestin 1 and b-arrestin 2 to GLP1R upon receptor activation, two enzyme fragment complementation assays were developed. To generate the assay cell lines, b-arrestin 1 fused to the b-galactosidase (b-gal) reporter fragment called enzyme acceptor (EA) (i.e., b-arrestin1-EA) or b-arrestin 2 fused to the b-gal reporter fragment EA (i.e., b-arrestin2-EA) were transduced into HEK293 cells using PathHunter b-Arrestinl Retroparticles (DiscoverX, #83-OT-TB-N-01) or PathHunter b-Arrestin2 Retroparticles (DiscoverX, #93-1087), respectively. The full-length human GLP1R (NP_002053.3) with a C-terminus fusion to a small b-gal fragment called enzyme donor or ProLink (PK) (i.e., hGLP1R-PK) was then engineered into HEK293/b-arrestinl-EA cells and HEK293/b-arrestin2-EA cells to generate the cell lines referred herein as HEK293/b-arrestin1/hGLP1R and HEK293/b-arrestin2/hGLP1R. Recruitment of b-arrestin 1 or b-arrestin 2 to GLP1R in these reporter cell lines brings both b-gal fragments (EA and PK) into close proximity, leading to reconstitution of a fully functional enzyme capable of hydrolyzing a substrate and generating a chemiluminescent signal.
(§1) For all assays, cells were seeded into 384-well plates (Falcon #353988) at 6,000 cells/well in assay media (Opti-MEM, 1% FBS, 1×Penicillin-Streptomycin) and incubated overnight at 37° C. Serial dilutions of the anti-GLP1R ATLs and non-binding control ATLs were performed in assay media. Serial dilutions of linker-payloads (LPs) were performed in 100% DMSO (ATCC, #4-X-5), followed by 1:100 dilution in assay media. Test articles were added to cells (1:5 dilution) using VIAFLO 384 (Integra) with the last well in each serial dilution series serving as a blank control containing only assay media for ATLs or assay media with 0.2% DMSO for LPs. The blank was plotted as a continuation of the serial dilution.
For b-arrestin 1 and b-arrestin 2 recruitment assays, after a 1-hour incubation at 37° C., PathHunter Detection Reagent (Eurofins DiscoverX, #93-0001) was added to the wells followed by a 1-hour incubation at room temperature. RLUs were measured on EnVision Plate Reader (Perkin Elmer).
(§2) EC50 values for luminescence assays were determined using a four-parameter logistic equation over a 12-point dose response curve (GraphPad Prism).

[2] = Metabolite study in human liver S9 (high resolution LC-MS); format: in vitro ADME
Protocol: Metabolite studies were conducted using Q-M3190 and Q-6009 (Q is Glutamine).
Liver S9 is the supernatant obtained by grinding and centrifuging the liver cells. The enzymes content is lower compared to Hepatocytes. It mainly contains CYP enzymes and some biphasic enzymes (but no biphasic coenzyme), so additional coenzyme (NADPH and UDPGA, etc.) is needed to mediate the biphasic reaction.

GLP-1R [3] = biological target: T1, GLP-1R; assay: CRE-Luc cAMP responsive luciferase reporter assay in HEK293/CRE-Luc/hGLP1R cells; format: cell-based; set-up: engineered to express full-length human GLP1R (GenBank: AAI12127.1) (HEK293/CRE-Luc/hGLP1R); expressed in transfected cells; host or cells: HEK293/CRE-Luc (HEK293/FSC11/pCDNA3.1 + GLP1R, ACL6822); conditions: for Emax: HEK293, read-out: Emax (% GLP-1), CRE-dependent reporter activity, HEK293/CRE-Luc/hGLP1R
Excerpt: To test the activity of GLP1R agonist linker-payloads (LPs) and anti-GLP1R antibody-tethered ligands (ATLs) of the invention, a cell-based cAMP responsive luciferase reporter assay was developed. To generate the assay cell line, the firefly luciferase gene was placed under the control of four copies of a cAMP response element (4×CRE) located upstream of a minimal promoter and transfected into HEK293 cells and referred to herein as HEK293/CRE-Luc cells. HEK293/CRE-Luc cells were then engineered to express full-length human GLP1R (GenBank: AAI12127.1) (HEK293/CRE-Luc/hGLP1R).
as §1
For the CRE-Luc assay, after a 5-hours incubation at 37° C., luciferase activity was determined by addition of ONE-Glo reagent (Promega, #E6130) followed by measurement of relative light units (RLUs) on EnVision Plate Reader (Perkin Elmer).
as §2

GLP-1R [4] = biological target: T1, GLP-1R; assay: GLP-1R cAMP assay of peptides (Tables 10, 14, 15); format: cell-based
[5] = biological target: T2, GLP-1R of the cAMP assay of Tables 10, 14 and 15 (human, UniProt P43220 24-463, limits assumed); assay: cell-based or functional assay
[6] = biological target: hGLP1R-PK: full-length human GLP1R (NP_002053.3) with a C-terminus fusion to ProLink (PK), on … (human, UniProt P43220 24-463); assay: cell-based or functional assay
[7] = biological target: full-length human GLP1R (GenBank: AAI12127.1) expressed on HEK293/CRE-Luc/hGLP1R cells (human, UniProt P43220 24-463); assay: cell-based or functional assay
[8] = biological target: T2, GLP-1R of the cAMP assay of Tables 10, …; assay: cell-based or functional assay; remark: listed apart in the source
[9] = HEK293, read-out: Emax (% GLP-1), b-Arrestin2 recruitment, HEK293/b-arrestin2/hGLP1R
[10] = metabolites of Q-M3190 at 4 hours in human liver S9
[11] = metabolites of Q-M6009 at 4 hours in human liver S9

## c-M3190 ATL: "Peptide C-M3190 identified from metabolite studies of M3190-antibody conjugate"; "From a tryptic digestion of the parent M3190-ATL" (LLQ(M3190 payload)GSGDIQMTQSPSSVSASVGDR; reading uncertain)
GLP1R humanized mouse
  conversion of c-M3190 ATL to c-M6009: slowly converted to c-M6009 after 7 days

## CCc1cc(OCCCCn2cc(COCCOCCOCCOCCOCCOCCOCCOCCN)nn2)ccc1-c1ccc(C[C@H](NC(=O)[C@H](CC(=O)O)NC(=O)[C@H](CO)NC(=O)[C@@H](NC(=O)[C@](C)(Cc2ccccc2F)NC(=O)[C@@H](NC(=O)CNC(=O)[C@H](Cc2nn[nH]n2)NC(=O)C(C)(C)C(=O)NCCc2cnc[nH]2)[C@@H](C)O)[C@@H](C)O)C(=O)N[C@@H](CCCc2cc(C)cc(C)c2)C(N)=O)cc1 [M3190]
GLP-1R [1]; [9]
  Emax: 128%
GLP-1R [1]; HEK293/b-arrestin2/hGLP1R cells, read-out: b-arrestin 2 recruitment EC50
  EC50: 3.51e-08 M
GLP-1R [1]; read-out: b-arrestin 2 recruitment Emax relative to GLP-1, HEK293/b-arrestin2/hGLP1R cells
  Emax: 128%
[2]; [10]
  Relative Abundance (% Total): 2.76 % Total
GLP-1R [3]
  Emax: 96.3%
GLP-1R [3]; HEK293/CRE-Luc/hGLP1R cells, independent experiments A, B, C, read-out: EC50 (M), CRE-dependent reporter activity, HEK293/CRE-Luc/hGLP1R
  EC50: 5.76e-10 M
GLP-1R [3]; HEK293/CRE-Luc/hGLP1R cells, read-out: CRE-dependent luciferase reporter activity EC50
  EC50: 5.76e-10 M
GLP-1R [4]; Table 14, peptide amides, read-out: cAMP EC50
  EC50: 0.318 nM

## Cc1cc(OCCOCCOCCOCCOCCOCCOCCOCCN)ccc1-c1ccc(C[C@H](NC(=O)[C@H](CC(=O)O)NC(=O)[C@H](CO)NC(=O)[C@@H](NC(=O)C(C)(Cc2ccccc2F)NC(=O)[C@@H](NC(=O)CNC(=O)[C@H](Cc2nnn[nH]2)NC(=O)C(C)(C)C(=O)NCCc2cnc[nH]2)[C@@H](C)O)[C@@H](C)O)C(=O)O)cc1 (some centres unmarked) [M6447]
GLP-1R [1]; [9]
  Emax: 0.3%
GLP-1R [1]; HEK293/b-arrestin2/hGLP1R cells
  b-arrestin 2 recruitment (in words): recruited very low levels of b-arrestin 2
GLP-1R [1]; HEK293/b-arrestin2/hGLP1R cells, independent experiments A, B, read-out: EC50 (M), b-Arrestin2 recruitment, HEK293/b-arrestin2/hGLP1R
  EC50: > 1e-06 M
GLP-1R [3]
  EC50: > 1e-06 M
  Emax: 9.8%
GLP-1R [3]; HEK293/CRE-Luc/hGLP1R cells
  CRE-dependent luciferase reporter activity (in words): very weak activator of CRE-dependent luciferase reporter activity

## CCc1cc(OCCCCn2cc(COCCOCCOCCOCCOCCOCCOCCOCCNC(=O)CC[C@H](N)C(=O)O)nn2)ccc1-c1ccc(C[C@H](NC(=O)[C@H](CC(=O)O)NC(=O)[C@H](CO)NC(=O)[C@@H](NC(=O)C(C)(Cc2ccccc2F)NC(=O)[C@@H](NC(=O)CNC(=O)[C@H](Cc2nn[nH]n2)NC(=O)C(C)(C)C(=O)NCCc2cnc[nH]2)[C@@H](C)O)[C@@H](C)O)C(=O)N[C@@H](CCCc2cc(C)cc(C)c2)C(=O)O)cc1 (some centres unmarked) [Q-M6009]
[2]; [10]
  Relative Abundance (% Total): 38.40 % Total
[2]; [11]
  Relative Abundance (% Total): 79.84 % Total
GLP-1R [4]; Table 10
  GLP-1R CAMP Max: 106.2%
GLP-1R [4]; Table 10, read-out: GLP-1R CAMP EC50
  EC50: 3.21 nM

## CCc1cc(OCCCCn2cc(COCCOCCOCCOCCOCCOCCOCCOCCNC(=O)CCC(N)C(=O)O)nn2)ccc1-c1ccc(C[C@H](NC(=O)[C@H](CC(=O)O)NC(=O)[C@H](CO)NC(=O)[C@@H](NC(=O)C(C)(Cc2ccccc2F)NC(=O)[C@@H](NC(=O)CNC(=O)[C@H](Cc2nn[nH]n2)NC(=O)C(C)(C)C(=O)NCCc2cnc[nH]2)[C@@H](C)O)[C@@H](C)O)C(=O)N[C@@H](CCCc2cc(C)cc(C)c2)C(N)=O)cc1 (some centres unmarked) [M6067]
[2]; [10]
  Relative Abundance (% Total): 56.51 % Total

## C[C@@H](O)[C@H](NC(=O)CNC(=O)[C@H](Cc1nn[nH]n1)NC(=O)C(C)(C)C(=O)NCCc1cnc[nH]1)C(=O)N[C@@](C)(Cc1ccccc1F)C(=O)N[C@H](C(=O)N[C@@H](CO)C(=O)N[C@@H](CC(=O)O)C(=O)O)[C@@H](C)O [AA10-AA(-AA8-AA7-AA6-AA5-AA4-AA3]
[2]; [11]
  Relative Abundance (% Total): 0.21 % Total

B1: M6324 (AA10-AA9-AA8-AA7-AA6-AA5-AA4-AA3-(L)AA2-OH) (peptide)
peptide: [AA10][AA9]GT[AA6]TSD[AA2](Leu)-OH
modifications: reading uncertain; also: printed as M6324 (AA10-AA9-AA8-AA7-AA6-AA5-AA4-AA3-(L)AA2-OH)
[5]
  GLP-1R CAMP EC50: 882 nM
  GLP-1R CAMP Max (%): 53.3%
[6]
  EC50 (M), b-Arrestin2 recruitment, HEK293/b-arrestin2/hGLP1R: > 1e-06 M
  Emax (% GLP-1), b-Arrestin2 recruitment, HEK293/b-arrestin2/hGLP1R: 0.7 % GLP-1
[7]
  EC50 (M), CRE-dependent reporter activity, HEK293/CRE-Luc/hGLP1R: 2.93e-07 M
  Emax (% GLP-1), CRE-dependent reporter activity, HEK293/CRE-Luc/hGLP1R: 91.6 % GLP-1

B2: Q-M3190 (AA10-AA9-AA8-AA7-AA6-AA5-AA4-AA3-(Q-L)AA2-AA1-NH2) (peptide)
peptide: [AA10][AA9]GT[AA6]TSD[AA2]([Leu-Gln])[AA1]-NH2
modifications: reading uncertain; also: printed as Q-M3190 (AA10-AA9-AA8-AA7-AA6-AA5-AA4-AA3-(Q-L)AA2-AA1-NH2)
[8]
  cAMP EC50 (nm): 1.07 nm

B3: M6009 (AA10-AA9-AA8-AA7-AA6-AA5-AA4-AA3-(L)AA2-AA1-OH) (peptide)
peptide: [AA10][AA9]GT[AA6]TSD[AA2](Leu)[AA1]-OH
modifications: reading uncertain; also: also named NH2-PEG8-triazole-P8 acid, printed as M6009 (AA10-AA9-AA8-AA7-AA6-AA5-AA4-AA3-(L)AA2-AA1-OH)
[5]
  GLP-1R CAMP EC50: 2.23 nM
  GLP-1R CAMP Max (%): 140%
[7]
  EC50 (M), CRE-dependent reporter activity, HEK293/CRE-Luc/hGLP1R: 4.64e-10 M
  Emax (% GLP-1), CRE-dependent reporter activity, HEK293/CRE-Luc/hGLP1R: 92.1 % GLP-1
